Laboratory results reported in paper PMC3639963, “A New Class of Small Molecule Inhibitor of BMP Signaling” (PLoS ONE, 2013).

What was measured:
ActRIIA (ACVR2) = ActRIIA (ACVR2) (Homo sapiens, UniProt P27037); test: Kinase-Glo assay; type: biochemical; settings: at the Km value of ATP, duplicate
Procedure: A kinase assay for ActRIIA (ACVR2) was performed using Kinase-Glo® (Promega) as per manufacturer’s instructions. […] Inhibitors were added at concentrations between 0 and 10 µM in kinase reaction buffer and tested in duplicate. At 15 min, 30 min, 1 hr, 2 hr, and 3 hr 20 µL aliquots of the reaction mixture was transferred to a 384-well plate and 20 µL of Kinase-Glo® was added and allowed to rest for 10 min to quench the reaction and produce light which was measured using a Spectramax L luminometer (Molecular Devices).

RSK1 = target: T1, RSK1 (Homo sapiens, UniProt Q15418); test: Nanosyn kinase profiling; type: biochemical; settings: read-out: Percentage inhibition; for inhibition at 0.1 µM: 0.1 µM inhibitor; for inhibition at 1 µM: 1 µM inhibitor
T1 construct: purchased Nanosyn (enzymatic panel); SGC in-house recombinant human kinases (DSF panel); Invitrogen (ALK1-6)
T1 sequence (Q15418 whole entry): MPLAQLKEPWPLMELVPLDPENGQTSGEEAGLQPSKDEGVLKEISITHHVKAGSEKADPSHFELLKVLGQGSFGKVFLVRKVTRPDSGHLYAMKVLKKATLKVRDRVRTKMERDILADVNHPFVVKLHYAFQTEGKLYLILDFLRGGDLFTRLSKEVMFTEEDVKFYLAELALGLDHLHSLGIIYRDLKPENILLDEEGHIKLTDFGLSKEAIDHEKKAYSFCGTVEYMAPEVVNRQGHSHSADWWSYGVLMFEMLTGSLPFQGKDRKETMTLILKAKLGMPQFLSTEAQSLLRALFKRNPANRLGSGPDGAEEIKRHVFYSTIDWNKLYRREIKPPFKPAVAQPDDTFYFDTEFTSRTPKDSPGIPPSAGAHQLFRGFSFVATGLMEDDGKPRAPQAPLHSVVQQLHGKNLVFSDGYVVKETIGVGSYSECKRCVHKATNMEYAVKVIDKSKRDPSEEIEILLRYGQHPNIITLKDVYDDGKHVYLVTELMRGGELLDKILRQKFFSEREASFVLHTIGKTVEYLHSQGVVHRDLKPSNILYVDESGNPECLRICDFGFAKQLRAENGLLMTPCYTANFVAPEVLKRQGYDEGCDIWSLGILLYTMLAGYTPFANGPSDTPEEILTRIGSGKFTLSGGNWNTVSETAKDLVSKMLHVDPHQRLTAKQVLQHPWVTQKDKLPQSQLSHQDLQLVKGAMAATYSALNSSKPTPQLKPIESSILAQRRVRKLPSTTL
Procedure: (§1) Percentage inhibition was determined for each kinase at both 0.1 µM and 1 µM inhibitor concentration (supplemental Table S2). […]. […]. When visualized on a kinase phylogenetic tree, these were primarily clustered within the receptor tyrosine kinases (TKs) as well as the calmodulin-dependent kinases (CAMKs) (Figure 2C).
(§2) Inhibitor selectivity profiling against 200 human kinases at 0.1 and 1 µM inhibitor concentration was performed by Nanosyn (www.nanosyn.com).

CLK2 = target: T2, CLK2 (Homo sapiens, UniProt P49760); test: Nanosyn kinase profiling; type: biochemical; settings: read-out: Percentage inhibition; for inhibition at 0.1 µM: 0.1 µM inhibitor; for inhibition at 1 µM: 1 µM inhibitor
T2 construct: purchased Nanosyn (enzymatic panel); SGC in-house recombinant human kinases (DSF panel); Invitrogen (ALK1-6)
T2 sequence (P49760 whole entry): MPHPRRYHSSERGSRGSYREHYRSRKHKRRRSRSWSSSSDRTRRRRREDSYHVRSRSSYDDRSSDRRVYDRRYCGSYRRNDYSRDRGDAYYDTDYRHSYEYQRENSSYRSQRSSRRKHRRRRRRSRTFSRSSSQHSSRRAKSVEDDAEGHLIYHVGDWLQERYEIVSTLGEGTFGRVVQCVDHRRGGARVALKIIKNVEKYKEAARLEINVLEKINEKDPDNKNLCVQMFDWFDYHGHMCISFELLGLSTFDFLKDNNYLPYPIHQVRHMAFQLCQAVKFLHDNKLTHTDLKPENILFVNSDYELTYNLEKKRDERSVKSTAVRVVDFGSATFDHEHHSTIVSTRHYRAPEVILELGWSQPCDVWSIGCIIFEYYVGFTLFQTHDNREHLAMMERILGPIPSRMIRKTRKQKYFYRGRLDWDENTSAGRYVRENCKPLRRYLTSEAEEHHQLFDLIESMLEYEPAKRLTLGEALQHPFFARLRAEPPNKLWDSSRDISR
Procedure: as §1, §2

MSSK1 = target: T3, MSSK1 (Homo sapiens, UniProt Q9UPE1); test: Nanosyn kinase profiling; type: biochemical; settings: read-out: Percentage inhibition; for inhibition at 0.1 µM: 0.1 µM inhibitor; for inhibition at 1 µM: 1 µM inhibitor
T3 construct: purchased Nanosyn (enzymatic panel); SGC in-house recombinant human kinases (DSF panel); Invitrogen (ALK1-6)
Procedure: as §1, §2

GRK6 = target: T4, GRK6 (Homo sapiens, UniProt P43250); test: Nanosyn kinase profiling; type: biochemical; settings: read-out: Percentage inhibition; for inhibition at 0.1 µM: 0.1 µM inhibitor; for inhibition at 1 µM: 1 µM inhibitor
T4 construct: purchased Nanosyn (enzymatic panel); SGC in-house recombinant human kinases (DSF panel); Invitrogen (ALK1-6)
T4 sequence (P43250 whole entry): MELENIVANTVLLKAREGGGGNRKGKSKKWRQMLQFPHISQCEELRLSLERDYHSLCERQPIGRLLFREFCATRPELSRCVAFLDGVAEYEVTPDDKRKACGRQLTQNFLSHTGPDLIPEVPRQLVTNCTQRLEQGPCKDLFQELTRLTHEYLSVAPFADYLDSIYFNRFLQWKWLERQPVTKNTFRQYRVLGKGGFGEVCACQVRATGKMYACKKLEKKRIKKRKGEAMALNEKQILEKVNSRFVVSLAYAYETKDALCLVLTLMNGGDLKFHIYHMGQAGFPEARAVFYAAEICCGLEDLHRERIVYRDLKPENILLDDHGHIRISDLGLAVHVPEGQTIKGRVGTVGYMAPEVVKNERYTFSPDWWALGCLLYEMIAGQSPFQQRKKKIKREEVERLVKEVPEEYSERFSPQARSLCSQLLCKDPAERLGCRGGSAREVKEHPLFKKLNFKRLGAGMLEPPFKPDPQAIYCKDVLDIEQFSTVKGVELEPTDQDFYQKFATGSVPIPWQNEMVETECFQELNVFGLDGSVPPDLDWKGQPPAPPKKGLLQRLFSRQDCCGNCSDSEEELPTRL
Procedure: as §1, §2

JAK2 = target: T5, JAK2 (Homo sapiens, UniProt O60674); test: Nanosyn kinase profiling; type: biochemical; settings: read-out: Percentage inhibition; for inhibition at 0.1 µM: 0.1 µM inhibitor; for inhibition at 1 µM: 1 µM inhibitor
T5 construct: purchased Nanosyn (enzymatic panel); SGC in-house recombinant human kinases (DSF panel); Invitrogen (ALK1-6)
T5 sequence (O60674 whole entry): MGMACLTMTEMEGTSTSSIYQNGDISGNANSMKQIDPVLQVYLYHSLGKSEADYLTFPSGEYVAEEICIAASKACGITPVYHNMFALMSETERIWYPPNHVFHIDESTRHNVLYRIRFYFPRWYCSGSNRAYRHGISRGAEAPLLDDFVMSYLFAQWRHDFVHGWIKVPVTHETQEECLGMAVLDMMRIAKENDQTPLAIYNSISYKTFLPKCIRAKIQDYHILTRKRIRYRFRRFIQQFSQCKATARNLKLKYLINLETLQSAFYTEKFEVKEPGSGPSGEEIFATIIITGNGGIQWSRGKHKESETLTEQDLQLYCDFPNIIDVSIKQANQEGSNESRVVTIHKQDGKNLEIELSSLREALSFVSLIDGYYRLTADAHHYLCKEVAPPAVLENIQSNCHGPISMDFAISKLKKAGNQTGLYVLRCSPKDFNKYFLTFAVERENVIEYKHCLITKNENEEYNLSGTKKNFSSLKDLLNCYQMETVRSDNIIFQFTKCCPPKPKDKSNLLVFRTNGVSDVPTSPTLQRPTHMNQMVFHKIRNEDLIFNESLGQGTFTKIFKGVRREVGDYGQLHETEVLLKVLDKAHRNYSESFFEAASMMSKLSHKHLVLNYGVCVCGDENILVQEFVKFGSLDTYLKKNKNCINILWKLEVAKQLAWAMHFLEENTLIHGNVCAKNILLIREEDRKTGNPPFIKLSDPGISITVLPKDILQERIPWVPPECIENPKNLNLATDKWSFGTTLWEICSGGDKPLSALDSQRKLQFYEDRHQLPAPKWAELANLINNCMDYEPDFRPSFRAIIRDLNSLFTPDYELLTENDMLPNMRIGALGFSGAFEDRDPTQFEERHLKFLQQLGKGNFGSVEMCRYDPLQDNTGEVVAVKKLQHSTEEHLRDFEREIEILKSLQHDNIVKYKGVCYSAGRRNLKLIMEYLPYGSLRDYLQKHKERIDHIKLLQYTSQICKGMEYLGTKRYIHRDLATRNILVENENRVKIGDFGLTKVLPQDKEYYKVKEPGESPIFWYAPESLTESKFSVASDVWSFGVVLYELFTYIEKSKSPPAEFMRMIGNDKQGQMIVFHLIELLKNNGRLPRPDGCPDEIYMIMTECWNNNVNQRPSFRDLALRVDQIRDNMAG
Procedure: as §1, §2

AKT1 = target: T6, AKT1 (Homo sapiens, UniProt P31749); test: Nanosyn kinase profiling; type: biochemical; settings: read-out: Percentage inhibition; for inhibition at 0.1 µM: 0.1 µM inhibitor; for inhibition at 1 µM: 1 µM inhibitor
T6 construct: purchased Nanosyn (enzymatic panel); SGC in-house recombinant human kinases (DSF panel); Invitrogen (ALK1-6)
Procedure: as §1, §2

CAMK2α = target: T7, CAMK2α (Homo sapiens, UniProt Q9UQM7); test: Nanosyn kinase profiling; type: biochemical; settings: read-out: Percentage inhibition; for inhibition at 0.1 µM: 0.1 µM inhibitor; for inhibition at 1 µM: 1 µM inhibitor
T7 construct: purchased Nanosyn (enzymatic panel); SGC in-house recombinant human kinases (DSF panel); Invitrogen (ALK1-6)
T7 sequence (Q9UQM7 whole entry): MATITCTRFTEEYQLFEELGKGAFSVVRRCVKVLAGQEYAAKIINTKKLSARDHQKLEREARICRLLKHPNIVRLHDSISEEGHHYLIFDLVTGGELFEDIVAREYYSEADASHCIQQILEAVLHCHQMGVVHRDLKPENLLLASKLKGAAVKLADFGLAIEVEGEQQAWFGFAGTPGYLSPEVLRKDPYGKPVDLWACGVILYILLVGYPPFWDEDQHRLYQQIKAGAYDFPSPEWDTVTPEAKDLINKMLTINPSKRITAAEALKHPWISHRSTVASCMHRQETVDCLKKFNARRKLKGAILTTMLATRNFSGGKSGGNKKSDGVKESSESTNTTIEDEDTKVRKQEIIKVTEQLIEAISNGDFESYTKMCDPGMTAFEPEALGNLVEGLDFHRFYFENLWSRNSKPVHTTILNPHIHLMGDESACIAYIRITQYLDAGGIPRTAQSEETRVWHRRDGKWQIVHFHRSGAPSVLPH
Procedure: as §1, §2

ROCK2 = target: T8, ROCK2 (Homo sapiens, UniProt O75116); test: Nanosyn kinase profiling; type: biochemical; settings: read-out: Percentage inhibition; for inhibition at 0.1 µM: 0.1 µM inhibitor; for inhibition at 1 µM: 1 µM inhibitor
T8 construct: purchased Nanosyn (enzymatic panel); SGC in-house recombinant human kinases (DSF panel); Invitrogen (ALK1-6)
Procedure: as §1, §2

AURKA = target: T9, AURKA (Homo sapiens, UniProt O14965); test: Nanosyn kinase profiling; type: biochemical; settings: read-out: Percentage inhibition; for inhibition at 0.1 µM: 0.1 µM inhibitor; for inhibition at 1 µM: 1 µM inhibitor
T9 construct: purchased Nanosyn (enzymatic panel); SGC in-house recombinant human kinases (DSF panel); Invitrogen (ALK1-6)
T9 sequence (O14965 1-403): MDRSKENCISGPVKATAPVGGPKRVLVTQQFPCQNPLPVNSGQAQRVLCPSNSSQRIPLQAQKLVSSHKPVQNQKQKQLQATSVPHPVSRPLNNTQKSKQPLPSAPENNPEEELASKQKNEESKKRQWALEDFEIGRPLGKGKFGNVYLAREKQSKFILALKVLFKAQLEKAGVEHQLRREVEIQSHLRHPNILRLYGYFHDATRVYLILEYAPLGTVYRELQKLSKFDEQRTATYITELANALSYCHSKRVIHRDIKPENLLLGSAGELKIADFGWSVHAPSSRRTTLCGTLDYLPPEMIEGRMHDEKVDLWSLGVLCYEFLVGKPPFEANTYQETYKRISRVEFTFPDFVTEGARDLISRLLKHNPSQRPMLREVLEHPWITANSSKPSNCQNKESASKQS
Procedure: as §1, §2

IRR = target: T10, IRR (Homo sapiens, UniProt P14616); test: Nanosyn kinase profiling; type: biochemical; settings: read-out: Percentage inhibition; for inhibition at 0.1 µM: 0.1 µM inhibitor; for inhibition at 1 µM: 1 µM inhibitor
T10 construct: purchased Nanosyn (enzymatic panel); SGC in-house recombinant human kinases (DSF panel); Invitrogen (ALK1-6)
T10 sequence (P14616 27-1297): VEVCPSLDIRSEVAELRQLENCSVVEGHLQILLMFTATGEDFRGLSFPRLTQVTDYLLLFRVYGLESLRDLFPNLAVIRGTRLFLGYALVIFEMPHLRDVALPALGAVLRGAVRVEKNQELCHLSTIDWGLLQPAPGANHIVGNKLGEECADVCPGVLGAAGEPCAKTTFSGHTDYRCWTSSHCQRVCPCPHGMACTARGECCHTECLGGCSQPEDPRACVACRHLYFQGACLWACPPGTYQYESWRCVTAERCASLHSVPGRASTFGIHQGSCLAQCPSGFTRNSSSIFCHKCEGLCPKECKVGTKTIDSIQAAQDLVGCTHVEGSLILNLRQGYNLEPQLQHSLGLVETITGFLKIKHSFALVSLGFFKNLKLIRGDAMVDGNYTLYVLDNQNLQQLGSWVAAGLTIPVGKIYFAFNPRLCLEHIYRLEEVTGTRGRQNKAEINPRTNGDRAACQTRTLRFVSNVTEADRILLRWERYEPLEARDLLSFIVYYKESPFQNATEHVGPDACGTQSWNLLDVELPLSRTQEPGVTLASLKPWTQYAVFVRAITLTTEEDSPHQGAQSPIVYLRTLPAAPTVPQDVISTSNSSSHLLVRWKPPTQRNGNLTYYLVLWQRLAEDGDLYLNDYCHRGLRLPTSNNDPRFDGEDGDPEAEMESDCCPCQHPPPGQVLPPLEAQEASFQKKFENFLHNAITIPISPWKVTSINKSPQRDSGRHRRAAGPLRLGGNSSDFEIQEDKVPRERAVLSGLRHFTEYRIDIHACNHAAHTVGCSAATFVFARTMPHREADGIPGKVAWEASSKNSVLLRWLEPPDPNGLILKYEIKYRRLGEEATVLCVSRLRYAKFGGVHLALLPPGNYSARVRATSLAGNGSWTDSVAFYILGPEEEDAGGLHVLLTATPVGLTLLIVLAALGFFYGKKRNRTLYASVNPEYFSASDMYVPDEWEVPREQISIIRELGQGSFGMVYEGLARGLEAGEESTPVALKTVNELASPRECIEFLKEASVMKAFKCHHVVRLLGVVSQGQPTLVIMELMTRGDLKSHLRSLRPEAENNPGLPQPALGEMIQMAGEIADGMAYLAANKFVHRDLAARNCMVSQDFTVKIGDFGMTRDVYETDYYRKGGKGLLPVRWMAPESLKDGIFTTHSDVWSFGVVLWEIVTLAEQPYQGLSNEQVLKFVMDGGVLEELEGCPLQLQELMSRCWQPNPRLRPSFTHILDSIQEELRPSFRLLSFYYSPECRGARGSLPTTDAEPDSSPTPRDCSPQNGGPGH
Procedure: as §1, §2

GRK7 = target: T11, GRK7 (Homo sapiens, UniProt Q8WTQ7); test: Nanosyn kinase profiling; type: biochemical; settings: read-out: Percentage inhibition; for inhibition at 0.1 µM: 0.1 µM inhibitor; for inhibition at 1 µM: 1 µM inhibitor
T11 construct: purchased Nanosyn (enzymatic panel); SGC in-house recombinant human kinases (DSF panel); Invitrogen (ALK1-6)
T11 sequence (Q8WTQ7 1-553): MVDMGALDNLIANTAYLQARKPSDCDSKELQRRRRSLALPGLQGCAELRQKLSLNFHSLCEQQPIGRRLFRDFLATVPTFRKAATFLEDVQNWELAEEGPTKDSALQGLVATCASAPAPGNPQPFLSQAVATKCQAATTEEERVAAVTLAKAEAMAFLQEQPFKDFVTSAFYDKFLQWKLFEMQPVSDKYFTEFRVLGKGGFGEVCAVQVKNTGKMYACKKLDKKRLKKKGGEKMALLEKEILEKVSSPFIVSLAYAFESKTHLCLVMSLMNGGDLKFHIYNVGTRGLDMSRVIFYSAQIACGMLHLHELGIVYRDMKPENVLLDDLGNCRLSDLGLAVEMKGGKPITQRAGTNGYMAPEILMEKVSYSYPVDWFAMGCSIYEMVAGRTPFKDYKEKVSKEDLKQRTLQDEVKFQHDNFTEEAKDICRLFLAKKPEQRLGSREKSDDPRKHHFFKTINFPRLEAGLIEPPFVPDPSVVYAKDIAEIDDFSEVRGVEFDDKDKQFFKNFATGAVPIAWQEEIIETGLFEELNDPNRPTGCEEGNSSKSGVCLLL
Procedure: as §1, §2

[1] = system: Activin A-induced P-Smad2 in HEK293 cells; test: Activin A-induced P-Smad2, Western blot; type: cell-based; settings: for inhibition of Smad2 phosphorylation: 0.5 µM, Activin A; for inhibition of Activin A-induced P-Smad2: qualitative
Procedure: C2C12 and HEK293 cells were grown in DMEM supplemented with 10% FCS (PAA) and seeded at a density of 1 x 10^5 cells per well in 6-well plates. The next day the cells were starved in DMEM containing 1% FCS for 5 hours. Inhibitors were added at the indicated concentrations for 30 minutes followed by 10 ng/mL BMP4 (Peprotech), 100 ng/mL BMP6 (Peprotech), 100 ng/mL Activin A (Peprotech) or 2 ng/mL TGF-β1 (Cell Signaling) for 1 hour. Cells were washed in PBS and lysed on ice for 30 minutes in lysis buffer (20 mM Tris-HCl pH 7.5, 150 mM NaCl, 1% Triton X-100, 25 mM NaF, 25 mM Na β-glycerophosphate, 2 mM Na3VO4) containing protease inhibitors (Roche). Protein concentration in the clarified lysate was determined by Bradford Assay (Pierce) and 15 µg run on 4–12% Bis-Tris gel (Biorad). The protein was transferred onto nitrocellulose membrane (GE Healthcare) and probed with the relevant antibody at 4°C overnight (Cell Signaling: anti-Smad 1 (#9743), anti-P-Smad 1/5/8 (#9511), anti-Smad 2 (#5339), anti-P-Smad 2 (#3101). After subsequent incubation with HRP-conjugated anti-rabbit antibody, protein bands were detected using ECL (Pierce) and an LAS4000 image reader. Cells were purchased originally from the European Collection of Cell Cultures (ECACC) available through Sigma.

| SMILES | IC50 (ActRIIA (ACVR2)) | inhibition at 0.1 µM (RSK1) | inhibition at 1 µM (RSK1) | inhibition at 0.1 µM (CLK2) | inhibition at 1 µM (CLK2) | inhibition at 0.1 µM (MSSK1) | inhibition at 1 µM (MSSK1) | inhibition at 0.1 µM (GRK6) | inhibition at 1 µM (GRK6) | inhibition at 0.1 µM (JAK2) | inhibition at 1 µM (JAK2) | inhibition at 0.1 µM (AKT1) | inhibition at 1 µM (AKT1) | inhibition at 0.1 µM (CAMK2α) | inhibition at 1 µM (CAMK2α) | inhibition at 0.1 µM (ROCK2) | inhibition at 1 µM (ROCK2) | inhibition at 0.1 µM (AURKA) | inhibition at 1 µM (AURKA) | inhibition at 0.1 µM (IRR) | also measured |
| --- | --- | --- | --- | --- | --- | --- | --- | --- | --- | --- | --- | --- | --- | --- | --- | --- | --- | --- | --- | --- | --- |
| COc1cc(-c2cc(-c3cccc(O)c3)cnc2N)cc(OC)c1OC [K02288, 3-[6-amino-5-(3,4,5-trimethoxy-phenyl)-pyridin-3-yl]-phenol] | 0.22 µM | 0.8% | 1.8% | 0% | 0% | 1.8% | 0% | 0.2% | 1.4% | 0% | 0% | -2% | -1% | -2% | -2% | -1% | 0.8% | -2% | -1% | -1% | inhibition at 1 µM (IRR): -1%; inhibition at 0.1 µM (GRK7): 0.2%; inhibition at 1 µM (GRK7): -3%; inhibition of Smad2 phosphorylation [1]: near complete inhibition; inhibition of Activin A-induced P-Smad2 [1]: weakly inhibited |
| c1ccc2c(-c3cnn4cc(-c5ccc(N6CCNCC6)cc5)cnc34)ccnc2c1 [LDN-193189] | 0.21 µM | 0.6% | 8% | 2.3% | 35% | -3% | 1.5% | 0% | 0.2% | 2% | 0.5% | 0.8% | 1.6% | 0% | -8% | 1.4% | 1.5% | 4.2% | 23% | 1.9% | inhibition at 1 µM (IRR): 2.2%; inhibition at 0.1 µM (GRK7): 1.8%; inhibition at 1 µM (GRK7): 0.8%; inhibition of Smad2 phosphorylation [1]: near complete inhibition; inhibition of Activin A-induced P-Smad2 [1]: weakly inhibited |
